Results from ChEMBL document CHEMBL3991601, “The target landscape of clinical kinase drugs” (Science, 2017).
The source made the active and inactive calls. For most assays here, no stated cut-off is given here; in the data, actives have a measured Kd and inactives only a lower limit.

How the values were obtained:
[1] = biological target: T1, Bone morphogenetic protein receptor type-2 (Homo sapiens, UniProt Q13873)
T1 sequence (Q13873 whole entry): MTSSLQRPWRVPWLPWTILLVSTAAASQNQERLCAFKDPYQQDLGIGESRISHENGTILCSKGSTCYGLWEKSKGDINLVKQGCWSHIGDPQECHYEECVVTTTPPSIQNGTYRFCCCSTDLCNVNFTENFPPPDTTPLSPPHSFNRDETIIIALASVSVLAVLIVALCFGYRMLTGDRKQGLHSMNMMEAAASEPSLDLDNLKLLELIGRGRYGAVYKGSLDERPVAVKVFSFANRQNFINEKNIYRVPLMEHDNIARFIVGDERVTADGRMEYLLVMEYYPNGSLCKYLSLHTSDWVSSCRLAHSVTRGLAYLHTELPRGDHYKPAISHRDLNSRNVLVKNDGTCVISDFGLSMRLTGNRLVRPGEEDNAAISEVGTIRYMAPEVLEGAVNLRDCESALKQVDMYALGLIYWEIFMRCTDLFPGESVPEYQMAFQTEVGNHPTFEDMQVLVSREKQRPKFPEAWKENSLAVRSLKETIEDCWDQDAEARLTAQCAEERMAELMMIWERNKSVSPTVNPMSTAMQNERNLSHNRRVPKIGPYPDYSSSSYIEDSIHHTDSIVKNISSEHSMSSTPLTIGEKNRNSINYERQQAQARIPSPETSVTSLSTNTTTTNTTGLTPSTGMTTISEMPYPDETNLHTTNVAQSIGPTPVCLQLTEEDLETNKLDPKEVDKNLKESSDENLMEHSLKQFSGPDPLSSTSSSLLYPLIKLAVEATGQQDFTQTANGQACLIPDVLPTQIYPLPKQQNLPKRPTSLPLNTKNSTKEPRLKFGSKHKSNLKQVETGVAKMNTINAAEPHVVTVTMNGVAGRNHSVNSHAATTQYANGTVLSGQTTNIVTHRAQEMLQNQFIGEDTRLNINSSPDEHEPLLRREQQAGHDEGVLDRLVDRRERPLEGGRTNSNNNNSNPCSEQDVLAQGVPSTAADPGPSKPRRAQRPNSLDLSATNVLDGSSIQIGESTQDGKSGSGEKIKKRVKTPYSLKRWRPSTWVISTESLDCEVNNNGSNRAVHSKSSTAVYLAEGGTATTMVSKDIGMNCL

[2] = biological target: Casein kinase I isoform epsilon (Homo sapiens, UniProt P49674)
[3] = biological target: T2, ATP-dependent RNA helicase DDX1 (Homo sapiens, UniProt Q92499)
T2 sequence (Q92499 whole entry): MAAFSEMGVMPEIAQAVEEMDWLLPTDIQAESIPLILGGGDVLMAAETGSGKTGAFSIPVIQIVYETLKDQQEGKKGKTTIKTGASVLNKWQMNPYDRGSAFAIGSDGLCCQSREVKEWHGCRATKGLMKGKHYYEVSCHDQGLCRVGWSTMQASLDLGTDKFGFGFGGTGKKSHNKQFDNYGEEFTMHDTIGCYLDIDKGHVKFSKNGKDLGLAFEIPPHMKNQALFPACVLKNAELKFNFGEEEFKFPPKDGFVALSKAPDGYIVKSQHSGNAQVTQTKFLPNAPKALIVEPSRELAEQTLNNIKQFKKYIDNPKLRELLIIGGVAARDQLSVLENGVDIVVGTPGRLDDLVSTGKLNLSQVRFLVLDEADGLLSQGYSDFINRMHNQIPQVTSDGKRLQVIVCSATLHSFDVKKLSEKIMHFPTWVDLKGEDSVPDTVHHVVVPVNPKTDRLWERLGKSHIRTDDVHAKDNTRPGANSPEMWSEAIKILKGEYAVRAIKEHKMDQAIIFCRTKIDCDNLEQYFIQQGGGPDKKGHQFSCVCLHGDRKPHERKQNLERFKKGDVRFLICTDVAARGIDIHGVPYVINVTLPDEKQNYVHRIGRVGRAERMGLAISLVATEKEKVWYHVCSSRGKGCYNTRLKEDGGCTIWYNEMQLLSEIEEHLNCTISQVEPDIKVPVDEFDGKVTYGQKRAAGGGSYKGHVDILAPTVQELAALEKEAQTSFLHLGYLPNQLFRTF

[4] = biological target: cAMP-dependent protein kinase catalytic subunit gamma (Homo sapiens, UniProt P22612)
[5] = biological target: T3, Serine/threonine-protein kinase TAO1 (Homo sapiens, UniProt Q7L7X3)
T3 sequence (Q7L7X3 whole entry): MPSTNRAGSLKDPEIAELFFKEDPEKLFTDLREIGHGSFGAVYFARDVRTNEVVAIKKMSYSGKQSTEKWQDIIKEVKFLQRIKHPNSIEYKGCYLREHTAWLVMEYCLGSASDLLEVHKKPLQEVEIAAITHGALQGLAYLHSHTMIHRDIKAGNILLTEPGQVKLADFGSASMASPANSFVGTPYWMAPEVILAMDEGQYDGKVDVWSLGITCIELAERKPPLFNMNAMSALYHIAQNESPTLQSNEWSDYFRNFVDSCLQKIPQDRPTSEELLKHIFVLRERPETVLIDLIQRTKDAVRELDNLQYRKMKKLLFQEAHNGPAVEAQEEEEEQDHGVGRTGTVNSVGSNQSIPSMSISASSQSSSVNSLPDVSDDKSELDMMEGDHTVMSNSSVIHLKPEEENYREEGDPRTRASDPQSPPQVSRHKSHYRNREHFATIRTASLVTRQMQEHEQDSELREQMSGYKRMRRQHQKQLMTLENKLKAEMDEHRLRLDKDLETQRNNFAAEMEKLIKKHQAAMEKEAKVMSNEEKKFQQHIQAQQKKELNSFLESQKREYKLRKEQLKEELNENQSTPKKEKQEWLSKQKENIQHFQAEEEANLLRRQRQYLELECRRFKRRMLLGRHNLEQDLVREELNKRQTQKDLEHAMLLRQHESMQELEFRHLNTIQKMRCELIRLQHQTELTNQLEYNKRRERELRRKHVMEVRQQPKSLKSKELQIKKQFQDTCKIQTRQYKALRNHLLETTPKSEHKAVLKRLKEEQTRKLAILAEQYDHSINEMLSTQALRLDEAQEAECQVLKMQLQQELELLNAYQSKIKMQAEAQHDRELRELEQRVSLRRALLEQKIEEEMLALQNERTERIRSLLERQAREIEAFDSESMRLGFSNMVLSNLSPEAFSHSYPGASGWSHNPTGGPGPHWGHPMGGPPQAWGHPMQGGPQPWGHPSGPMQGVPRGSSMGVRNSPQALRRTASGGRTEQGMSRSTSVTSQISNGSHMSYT

Sequence of cAMP-dependent protein kinase catalytic subunit gamma (P22612 whole entry): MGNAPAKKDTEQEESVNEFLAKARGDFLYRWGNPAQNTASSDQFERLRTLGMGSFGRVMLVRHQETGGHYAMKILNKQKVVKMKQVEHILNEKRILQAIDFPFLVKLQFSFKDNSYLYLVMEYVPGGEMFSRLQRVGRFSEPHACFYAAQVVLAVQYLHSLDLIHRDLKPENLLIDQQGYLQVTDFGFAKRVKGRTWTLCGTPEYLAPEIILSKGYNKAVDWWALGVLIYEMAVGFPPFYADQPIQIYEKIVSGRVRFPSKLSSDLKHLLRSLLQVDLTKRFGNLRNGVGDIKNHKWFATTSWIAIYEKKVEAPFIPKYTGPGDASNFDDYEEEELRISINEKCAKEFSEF
Sequence of Casein kinase I isoform epsilon (P49674 whole entry, canonical isoform): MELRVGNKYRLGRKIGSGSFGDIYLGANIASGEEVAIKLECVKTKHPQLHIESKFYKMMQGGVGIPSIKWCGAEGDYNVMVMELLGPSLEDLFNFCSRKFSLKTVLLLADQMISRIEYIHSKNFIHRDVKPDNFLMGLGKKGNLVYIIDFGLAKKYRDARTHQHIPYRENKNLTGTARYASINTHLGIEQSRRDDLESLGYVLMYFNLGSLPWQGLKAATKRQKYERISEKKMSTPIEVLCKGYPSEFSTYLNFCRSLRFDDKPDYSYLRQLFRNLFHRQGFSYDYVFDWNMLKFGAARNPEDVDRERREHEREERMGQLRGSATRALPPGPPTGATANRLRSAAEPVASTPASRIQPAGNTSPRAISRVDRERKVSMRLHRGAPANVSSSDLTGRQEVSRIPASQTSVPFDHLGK

COc1cc2nccc(Oc3ccc(NC(=O)C4(C(=O)Nc5ccc(F)cc5)CC4)cc3)c2cc1OC [CABOZANTINIB]
Kd [1]: > 30 µM (inactive)
Kd [2]: > 30 µM (inactive)
Kd [3]: > 30 µM (inactive)
Kd [4]: > 30 µM (inactive)
Kd [5]: > 30 µM (inactive)

Cc1cc(Nc2nc(N[C@@H](C)c3ncc(F)cn3)ncc2Cl)n[nH]1 [AZD-1480]
Kd [1]: > 30 µM (inactive)
Kd [2]: > 30 µM (inactive)
Kd [3]: > 30 µM (inactive)
Kd [4]: > 30 µM (inactive)
Kd [5]: > 30 µM (inactive)

COc1cccc(Nc2ncnn3ccc(CN4CC[C@@H](N)[C@H](O)C4)c23)c1 [BMS-690514]
Kd [1]: > 30 µM (inactive)
Kd [2]: 3.64 µM (active)
Kd [3]: > 30 µM (inactive)
Kd [4]: > 30 µM (inactive)
Kd [5]: > 30 µM (inactive)

COc1cc2ncnc3c2cc1OCCCCCN(C)Cc1ccc(Br)cc1N3 [JNJ-26483327]
Kd [1]: > 30 µM (inactive)
Kd [2]: > 30 µM (inactive)
Kd [3]: > 30 µM (inactive)
Kd [4]: > 30 µM (inactive)
Kd [5]: > 30 µM (inactive)

CCc1cc2c(cc1N1CCC(N3CCOCC3)CC1)C(C)(C)c1[nH]c3cc(C#N)ccc3c1C2=O [ALECTINIB]
Kd [1]: > 30 µM (inactive)
Kd [2]: > 30 µM (inactive)
Kd [3]: > 30 µM (inactive)
Kd [4]: > 30 µM (inactive)
Kd [5]: > 30 µM (inactive)

CNC(=O)c1cc(COc2nnc(Nc3ccc(Cl)cc3)c3ccoc23)ccn1 [TELATINIB]
Kd [1]: > 30 µM (inactive)
Kd [2]: > 30 µM (inactive)
Kd [3]: > 30 µM (inactive)
Kd [4]: > 30 µM (inactive)
Kd [5]: > 30 µM (inactive)

CC[C@@](C)(Nc1ccnc(-c2c[nH]c3ncccc23)n1)C(=O)NCC(F)(F)F [DECERNOTINIB]
Kd [1]: > 30 µM (inactive)
Kd [2]: > 30 µM (inactive)
Kd [3]: > 30 µM (inactive)
Kd [4]: > 30 µM (inactive)
Kd [5]: 3.41 µM (active)

Cc1cc(-c2cc(OC(=O)c3ccccc3)ccc2Cl)cc2nnc(Nc3ccc(OCCN4CCCC4)cc3)nc12 [TG100-801]
Kd [1]: > 30 µM (inactive)
Kd [2]: > 30 µM (inactive)
Kd [3]: > 30 µM (inactive)
Kd [4]: > 30 µM (inactive)
Kd [5]: > 30 µM (inactive)

O=C(NOC[C@H](O)CO)c1ccc(F)c(F)c1Nc1ccc(I)cc1F [MIRDAMETINIB]
Kd [1]: > 30 µM (inactive)
Kd [2]: > 30 µM (inactive)
Kd [3]: > 30 µM (inactive)
Kd [4]: > 30 µM (inactive)
Kd [5]: > 30 µM (inactive)

CC(C)(O)CC(=O)NCCn1ccc2ncnc(Nc3ccc(Oc4cccc(C(F)(F)F)c4)c(Cl)c3)c21 [TAK-285]
Kd [1]: > 30 µM (inactive)
Kd [2]: > 30 µM (inactive)
Kd [3]: > 30 µM (inactive)
Kd [4]: > 30 µM (inactive)
Kd [5]: > 30 µM (inactive)

Cc1cc(C(=O)Nc2cc(Oc3ccc4nc(NC(=O)C5CC5)cn4n3)ccc2C)n(C)n1 [TAK-593]
Kd [1]: > 30 µM (inactive)
Kd [2]: > 30 µM (inactive)
Kd [3]: > 30 µM (inactive)
Kd [4]: > 30 µM (inactive)
Kd [5]: > 30 µM (inactive)

Cc1c(NC(=O)OC[C@@H]2COCCN2)cn2ncnc(Nc3ccc4c(cnn4Cc4cccc(F)c4)c3)c12 [AC-480]
Kd [1]: > 30 µM (inactive)
Kd [2]: > 30 µM (inactive)
Kd [3]: > 30 µM (inactive)
Kd [4]: > 30 µM (inactive)
Kd [5]: > 30 µM (inactive)

COc1cc(Nc2ncc(F)c(Nc3ccc4c(n3)N(COP(=O)(O)O)C(=O)C(C)(C)O4)n2)cc(OC)c1OC [FOSTAMATINIB]
Kd [1]: > 30 µM (inactive)
Kd [2]: > 30 µM (inactive)
Kd [3]: > 30 µM (inactive)
Kd [4]: > 30 µM (inactive)
Kd [5]: > 30 µM (inactive)

C[C@@H]1COC(Nc2ccc3ncnc(Nc4ccc(OCc5nccs5)c(Cl)c4)c3c2)=N1 [VARLITINIB]
Kd [1]: > 30 µM (inactive)
Kd [2]: > 30 µM (inactive)
Kd [3]: > 30 µM (inactive)
Kd [4]: > 30 µM (inactive)
Kd [5]: > 30 µM (inactive)

COCCN1CCN(Cc2ccc(-c3n[nH]c4c3C(=O)c3c(NC(=O)NN5CCOCC5)cccc3-4)cc2)CC1 [RGB-286638]
Kd [1]: 0.153 µM
Kd [2]: > 30 µM (inactive)
Kd [3]: > 30 µM (inactive)
Kd [4]: > 30 µM (inactive)
Kd [5]: > 30 µM (inactive)

CNC(=O)c1ccc(Nc2ncc(C(F)(F)F)c(NCc3nccnc3N(C)S(C)(=O)=O)n2)cc1 [DEFACTINIB]
Kd [1]: > 30 µM (inactive)
Kd [2]: > 30 µM (inactive)
Kd [3]: > 30 µM (inactive)
Kd [4]: > 30 µM (inactive)
Kd [5]: 3.23 µM (active)

C=CC(=O)Nc1cccc(Nc2nc(Nc3ccc(N4CCN(C(C)=O)CC4)cc3OC)ncc2C(F)(F)F)c1 [ROCILETINIB]
Kd [1]: > 30 µM (inactive)
Kd [2]: > 30 µM (inactive)
Kd [3]: > 30 µM (inactive)
Kd [4]: > 30 µM (inactive)
Kd [5]: > 30 µM (inactive)

Cc1c(Cn2c(C)nc3c(C(=O)O)cc(N4CCOCC4)cc32)cccc1C(F)(F)F [GSK-2636771]
Kd [1]: > 30 µM (inactive)
Kd [2]: > 30 µM (inactive)
Kd [3]: > 30 µM (inactive)
Kd [4]: > 30 µM (inactive)
Kd [5]: > 30 µM (inactive)

Cn1cc(-c2[nH]c3cc(NC(=O)[C@H](N)C4CCCCC4)cc4c3c2C=NNC4=O)cn1
Kd [1]: > 30 µM (inactive)
Kd [2]: > 30 µM (inactive)
Kd [3]: > 30 µM (inactive)
Kd [4]: > 30 µM (inactive)
Kd [5]: > 30 µM (inactive)

NC(=O)c1ccc(N(C(N)=O)c2c(F)cccc2F)nc1-c1ccc(F)cc1F [VX-702]
Kd [1]: > 30 µM (inactive)
Kd [2]: > 30 µM (inactive)
Kd [3]: > 30 µM (inactive)
Kd [4]: > 30 µM (inactive)
Kd [5]: > 30 µM (inactive)

COc1cc(F)c(F)c(Nc2ccc(I)cc2F)c1NS(=O)(=O)C1(C[C@H](O)CO)CC1 [REFAMETINIB]
Kd [1]: > 30 µM (inactive)
Kd [2]: > 30 µM (inactive)
Kd [3]: > 30 µM (inactive)
Kd [4]: > 30 µM (inactive)
Kd [5]: > 30 µM (inactive)

O[C@H]1CC[C@H](Nc2ncc3nc(Nc4c(F)cc(F)cc4F)n([C@H]4CCOC4)c3n2)CC1 [TANZISERTIB]
Kd [1]: > 30 µM (inactive)
Kd [2]: > 30 µM (inactive)
Kd [3]: > 30 µM (inactive)
Kd [4]: > 30 µM (inactive)
Kd [5]: > 30 µM (inactive)
